Source: US10829478B2, “5-[3-[piperazin-1-yl]-3-oxo-propyl]-imidazolidine-2,4-dione derivatives as ADAMTS 4 and 5 inhibitors for treating e.g. osteoarthritis” (Galapagos NV, priority 2016, dated 2020)

How the values were obtained:
human ADAMTS-5 = human ADAMTS-5 (Homo sapiens (Human), UniProt Q9UNA0); test: hADAMTS-5 TBIS-1 cleavage assay, Protocol 3; format: biochemical; conditions: 90 min at 37° C., read-out: hADAMTS-5 potency IC50
Method: The reaction is initiated by adding to the assay plate TBIS-1 (10 μL, 4.5 μM, Anaspec) in the same buffer.
Finally, the fluorescence is read on the Envision (Perkin Elmer) after an incubation of 90 min at 37° C. (Excitation 485 nm, emission 530).

human ADAMTS6 = human ADAMTS6 (Homo sapiens (Human), UniProt Q9UKP5); test: hADAMTS-6 fluorescent based protease assay (520 MMP FRET substrate XII); format: biochemical; conditions: 37° C. for 2 h; read-out: hADAMTS-6 potency IC50
Method: The IC50 value for test compounds can be determined in a fluorescent based protease assay.
The substrate contains sequence Arg-Pro-Lys-Pro-Tyr-Ala-Nva-Trp-Met-Lys (SEQ ID NO: 7) with attached a fluorescent probe and a quencher. Without ADAMTS6, the emission of the probe is quenched. If the substrate is cleaved by ADAMTS6, the emission of the probe is not quenched anymore. Inhibition of ADAMTS6 activity, will result in a decrease of the signal.
To perform the assay, 4 μL of a dilution series of compound in water, starting from 20 μM highest concentration, ⅕ dilution, is added to the wells. 2 ng ADAMTS6 enzyme is diluted in 25 mM Tris pH8.0, 0.05% CHAPS, 2.5 mM CaCl2 in a total volume of 26 μL (final concentration 0.73 nM). The reaction is started by addition of 10 μL of 1 μM 520 MMP FRET Substrate XII (final concentration, diluted in same buffer as described above) and the mixture is incubated at 37° C. for 2 h. […] After this incubation, cleavage of the substrate is measured using the Envision (Perkin Elmer, exc485/em530).

Sequence of human ADAMTS6 (Q9UKP5 other isoform, or with tags, fused parts or gaps): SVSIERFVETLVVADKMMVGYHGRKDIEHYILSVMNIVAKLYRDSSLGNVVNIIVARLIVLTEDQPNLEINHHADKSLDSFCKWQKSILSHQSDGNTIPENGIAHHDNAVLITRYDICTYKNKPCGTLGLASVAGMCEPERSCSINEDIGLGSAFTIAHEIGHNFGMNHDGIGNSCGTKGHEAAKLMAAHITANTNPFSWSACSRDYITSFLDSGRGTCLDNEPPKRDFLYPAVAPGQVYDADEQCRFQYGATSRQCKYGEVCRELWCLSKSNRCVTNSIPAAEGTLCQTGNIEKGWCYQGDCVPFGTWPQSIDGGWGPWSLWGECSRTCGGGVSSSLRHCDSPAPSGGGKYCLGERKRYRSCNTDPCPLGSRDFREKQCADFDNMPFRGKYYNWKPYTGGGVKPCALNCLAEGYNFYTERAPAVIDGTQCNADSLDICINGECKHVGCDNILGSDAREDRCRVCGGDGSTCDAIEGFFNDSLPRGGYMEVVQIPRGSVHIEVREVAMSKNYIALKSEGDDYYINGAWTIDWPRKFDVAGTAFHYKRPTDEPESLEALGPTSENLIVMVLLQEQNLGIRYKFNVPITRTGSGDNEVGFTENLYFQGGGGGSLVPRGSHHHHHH
Sequence of human ADAMTS-5 (Q9UNA0 262-930): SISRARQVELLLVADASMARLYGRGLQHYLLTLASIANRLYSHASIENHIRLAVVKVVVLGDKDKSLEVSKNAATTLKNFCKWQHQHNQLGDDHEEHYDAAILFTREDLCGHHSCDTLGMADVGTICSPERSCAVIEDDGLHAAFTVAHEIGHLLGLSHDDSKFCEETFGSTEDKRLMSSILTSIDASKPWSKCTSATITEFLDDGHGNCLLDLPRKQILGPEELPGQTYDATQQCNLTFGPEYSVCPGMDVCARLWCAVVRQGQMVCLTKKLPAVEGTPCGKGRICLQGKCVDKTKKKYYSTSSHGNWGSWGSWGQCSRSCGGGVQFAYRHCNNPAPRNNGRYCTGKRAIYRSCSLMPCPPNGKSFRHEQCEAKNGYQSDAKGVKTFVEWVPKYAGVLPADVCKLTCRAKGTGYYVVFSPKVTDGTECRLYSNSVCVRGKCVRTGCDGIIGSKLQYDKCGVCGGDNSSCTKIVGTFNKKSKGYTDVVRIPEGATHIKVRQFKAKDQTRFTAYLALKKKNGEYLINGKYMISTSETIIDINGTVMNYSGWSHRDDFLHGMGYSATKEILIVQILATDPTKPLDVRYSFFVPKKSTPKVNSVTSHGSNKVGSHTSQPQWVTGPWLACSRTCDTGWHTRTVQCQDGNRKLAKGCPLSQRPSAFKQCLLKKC

With COc1ccc(C)c(N2CCN(C(=O)CC[C@H]3NC(=O)NC3=O)CC2)c1 [Cpd 136, (5R)-5-[3-[4-(5-methoxy-2-methyl-phenyl)piperazin-1-yl]-3-oxo-propyl]imidazolidine-2,4-dione] the IC50 (human ADAMTS-5) was > 100 nM and the IC50 (human ADAMTS6) was > 100 nM.
For COc1cc(N2CCN(C(=O)[C@@H](C)C[C@@]3(C)NC(=O)NC3=O)C[C@@H]2C)c(C)cc1Cl (mixture of isomers) [Cpd 45, 5-[3-[(3S)-4-(4-chloro-5-methoxy-2-methyl-phenyl)-3-methyl-piperazin-1-yl]-2-methyl-3-oxo-propyl]-5-methyl-imidazolidine-2,4-dione], the IC50 (human ADAMTS-5) was > 100 nM and the IC50 (human ADAMTS6) was > 100 nM.
In the case of COc1ccc(C)c(N2CCN(C(=O)CCC3(C)NC(=O)NC3=O)C[C@@H]2C)c1 (stereo partly drawn) [Cpd 35, 5-[3-[(3S)-4-(5-methoxy-2-methyl-phenyl)-3-methyl-piperazin-1-yl]-3-oxo-propyl]-5-methyl-imidazolidine-2,4-dione], the IC50 (human ADAMTS-5) is reported as > 100 nM and the IC50 (human ADAMTS6) is reported as > 100 nM.
Cc1cccc(C2(CCC(=O)N3CCN(c4ccc(Cl)c(OC(F)(F)F)c4)[C@@H](C)C3)NC(=O)NC2=O)n1 (stereo partly drawn) [Cpd 101, 5-[3-[(3 S)-4-[4-chloro-3-(trifluoromethoxy)phenyl]-3-methyl-piperazin-1-yl]-3-oxo-propyl]-5-(6-methyl-2-pyridyl)imidazolidine-2,4-dione] gave an IC50 (human ADAMTS6) of 0.001 to 25 nM.
CCc1cc(N2CCN(C(=O)CCC3(c4cccc(C)n4)NC(=O)NC3=O)C[C@@H]2C)ccc1Cl (stereo partly drawn) [Cpd 100, 5-[3-[(3 S)-4-(4-chloro-3-ethyl-phenyl)-3-methyl-piperazin-1-yl]-3-oxo-propyl]-5-(6-methyl-2-pyridyl)imidazolidine-2,4-dione] showed an IC50 (human ADAMTS6) of 0.001 to 25 nM.
In the case of COc1ccc(C)c(N2CCN(C(=O)CCC3(C)NC(=O)NC3=O)CC2)c1 (stereo not drawn) [Cpd 32, 5-[3-[4-(5-methoxy-2-methyl-phenyl)piperazin-1-yl]-3-oxo-propyl]-5-methyl-imidazolidine-2,4-dione], the IC50 (human ADAMTS-5) is reported as > 100 nM and the IC50 (human ADAMTS6) is reported as > 100 nM.
With COc1c(Cl)cccc1N1CCN(C(=O)CC[C@@]2(C)NC(=O)NC2=O)CC1 [Cpd 68, (5R)-5-[3-[4-(3-chloro-2-methoxy-phenyl)piperazin-1-yl]-3-oxo-propyl]-5-methyl-imidazolidine-2,4-dione] the IC50 (human ADAMTS6) was > 100 nM.
CCc1cc(N2CCN(C(=O)CCC3(CC(=O)O)NC(=O)NC3=O)C[C@@H]2C)ccc1Cl (stereo partly drawn) [Cpd 98, 2-[4-[3-[(3 S)-4-(4-chloro-3-ethyl-phenyl)-3-methyl-piperazin-1-yl]-3-oxo-propyl]-2,5-dioxo-imidazolidin-4-yl]acetic acid] showed an IC50 (human ADAMTS6) of 0.001 to 25 nM.
In the case of COc1ccc(Cl)cc1N1CCN(C(=O)CC[C@@]2(C)NC(=O)NC2=O)CC1 [Cpd 77, (5R)-5-[3-[4-(5-chloro-2-methoxy-phenyl)piperazin-1-yl]-3-oxo-propyl]-5-methyl-imidazolidine-2,4-dione], the IC50 (human ADAMTS6) is reported as > 100 nM.
For COc1c(F)cccc1N1CCN(C(=O)CC[C@@]2(C)NC(=O)NC2=O)CC1 [Cpd 82, (5R)-5-[3-[4-(3-fluoro-2-methoxy-phenyl)piperazin-1-yl]-3-oxo-propyl]-5-methyl-imidazolidine-2,4-dione], the IC50 (human ADAMTS6) was > 100 nM.
COc1ccc(C)c(N2CCN(C(=O)CC[C@H]3NC(=O)NC3=O)C[C@@H]2C)c1 [Cpd 140, (5R)-5-[3-[(3 S)-4-(5-methoxy-2-methyl-phenyl)-3-methyl-piperazin-1-yl]-3-oxo-propyl]imidazolidine-2,4-dione] was tested, and the IC50 (human ADAMTS-5) was > 100 nM and the IC50 (human ADAMTS6) was > 100 nM.
In the case of COc1cc(F)ccc1N1CCN(C(=O)CC[C@@]2(C)NC(=O)NC2=O)C[C@@H]1C [Cpd 81, (5R)-5-[3-[(3 S)-4-(4-fluoro-2-methoxy-phenyl)-3-methyl-piperazin-1-yl]-3-oxo-propyl]-5-methyl-imidazolidine-2,4-dione], the IC50 (human ADAMTS6) is reported as > 100 nM.
In the case of COc1cc(N2CCN(C(=O)CC[C@@]3(C)NC(=O)NC3=O)C[C@@H]2C)c(OC)cc1Cl [Cpd 104, (5R)-5-[3-[(3 S)-4-(4-chloro-2,5-dimethoxy-phenyl)-3-methyl-piperazin-1-yl]-3-oxo-propyl]-5-methyl-imidazolidine-2,4-dione], the IC50 (human ADAMTS6) is reported as 0.001 to 25 nM.
Compound COc1cc(N2CCN(C(=O)CC[C@@]3(C)NC(=O)NC3=O)CC2)c(C)cc1F [Cpd 67, (5R)-5-[3-[4-(4-fluoro-5-methoxy-2-methyl-phenyl)piperazin-1-yl]-3-oxo-propyl]-5-methyl-imidazolidine-2,4-dione] has an IC50 (human ADAMTS6) of 50 to 100 nM.
In the case of COc1cc(N2CCN(C(=O)CC[C@@]3(C)NC(=O)NC3=O)CC2)c(OC)cc1Cl [Cpd 97, (5R)-5-[3-[4-(4-chloro-2,5-dimethoxy-phenyl)piperazin-1-yl]-3-oxo-propyl]-5-methyl-imidazolidine-2,4-dione], the IC50 (human ADAMTS6) is reported as 25 to 50 nM.
With CCc1cc(CC)cc(N2CCN(C(=O)CC[C@@]3(C)NC(=O)NC3=O)CC2)c1 [Cpd 72, (5R)-5-[3-[4-(3,5-diethylphenyl)piperazin-1-yl]-3-oxo-propyl]-5-methyl-imidazolidine-2,4-dione] the IC50 (human ADAMTS6) was > 100 nM.
With COc1ccc(F)cc1N1CCN(C(=O)CC[C@@]2(C)NC(=O)NC2=O)CC1 [Cpd 83, (5R)-5-[3-[4-(5-fluoro-2-methoxy-phenyl)piperazin-1-yl]-3-oxo-propyl]-5-methyl-imidazolidine-2,4-dione] the IC50 (human ADAMTS6) was > 100 nM.
In the case of C[C@]1(CCC(=O)N2CCN(c3ccc(Cl)c(OC(F)(F)F)c3)CC2)NC(=O)NC1=O [Cpd 88, (5R)-5-[3-[4-[4-chloro-3-(trifluoromethoxy)phenyl]piperazin-1-yl]-3-oxo-propyl]-5-methyl-imidazolidine-2,4-dione], the IC50 (human ADAMTS6) is reported as 25 to 50 nM.
Work on COc1cc(Cl)c(Cl)cc1N1CCN(C(=O)CC[C@@]2(C)NC(=O)NC2=O)C[C@@H]1C [Cpd 92, (5R)-5-[3-[(3 S)-4-(4,5-dichloro-2-methoxy-phenyl)-3-methyl-piperazin-1-yl]-3-oxo-propyl]-5-methyl-imidazolidine-2,4-dione] yielded an IC50 (human ADAMTS6) of 0.001 to 25 nM.
For COc1cc(N2CCN(C(=O)CC[C@@]3(C)NC(=O)NC3=O)C[C@@H]2C)cc(OC)c1Cl [Cpd 110, (5R)-5-[3-[(3 S)-4-(4-chloro-3,5-dimethoxy-phenyl)-3-methyl-piperazin-1-yl]-3-oxo-propyl]-5-methyl-imidazolidine-2,4-dione], the IC50 (human ADAMTS-5) was > 100 nM and the IC50 (human ADAMTS6) was 0.001 to 25 nM.
COc1cccc(N2CCN(C(=O)CCC3(C)NC(=O)NC3=O)CC2)c1C (stereo not drawn) [Cpd 33, 5-[3-[4-(3-methoxy-2-methyl-phenyl)piperazin-1-yl]-3-oxo-propyl]-5-methyl-imidazolidine-2,4-dione] was tested, and the IC50 (human ADAMTS-5) was > 100 nM and the IC50 (human ADAMTS6) was > 100 nM.
For CC(C)c1cc(N2CCN(C(=O)CC[C@@]3(C)NC(=O)NC3=O)CC2)ccc1Cl [Cpd 87, (5R)-5-[3-[4-(4-chloro-3-isopropyl-phenyl)piperazin-1-yl]-3-oxo-propyl]-5-methyl-imidazolidine-2,4-dione], the IC50 (human ADAMTS6) was 50 to 100 nM.
For COc1c(F)cccc1N1CCN(C(=O)CC[C@@]2(C)NC(=O)NC2=O)C[C@@H]1C [Cpd 84, (5R)-5-[3-[(3 S)-4-(3-fluoro-2-methoxy-phenyl)-3-methyl-piperazin-1-yl]-3-oxo-propyl]-5-methyl-imidazolidine-2,4-dione], the IC50 (human ADAMTS6) was > 100 nM.
For CCOc1cc(N2CCN(C(=O)CC[C@@]3(C)NC(=O)NC3=O)C[C@@H]2C)ccc1Cl [Cpd 111, (5R)-5-[3-[(3 S)-4-(4-chloro-3-ethoxy-phenyl)-3-methyl-piperazin-1-yl]-3-oxo-propyl]-5-methyl-imidazolidine-2,4-dione], the IC50 (human ADAMTS-5) was > 100 nM and the IC50 (human ADAMTS6) was 0.001 to 25 nM.
For CCc1cc(N2CCN(C(=O)CC[C@@]3(C)NC(=O)NC3=O)C[C@@H]2C)c(OC)cc1Cl [Cpd 103, (5R)-5-[3-[(3 S)-4-(4-chloro-5-ethyl-2-methoxy-phenyl)-3-methyl-piperazin-1-yl]-3-oxo-propyl]-5-methyl-imidazolidine-2,4-dione], the IC50 (human ADAMTS6) was > 100 nM.
With COc1ccc(OC(F)(F)F)c(N2CCN(C(=O)CC[C@@]3(C)NC(=O)NC3=O)C[C@@H]2C)c1 [Cpd 108, (5R)-5-[3-[(3S)-4-[5-methoxy-2-(trifluoromethoxy)phenyl]-3-methyl-piperazin-1-yl]-3-oxo-propyl]-5-methyl-imidazolidine-2,4-dione] the IC50 (human ADAMTS6) was > 100 nM.
Work on COc1cc(N2CCN(C(=O)[C@@H](C)C[C@@]3(C)NC(=O)NC3=O)C[C@@H]2C)cc(OC)c1Cl (stereo in doubt) [Cpd 44, 5-[3-[(3S)-4-(4-chloro-3,5-dimethoxy-phenyl)-3-methyl-piperazin-1-yl]-2-methyl-3-oxo-propyl]-5-methyl-imidazolidine-2,4-dione] yielded an IC50 (human ADAMTS-5) of 50 to 100 nM and an IC50 (human ADAMTS6) of 0.001 to 25 nM.
For CCc1cc(N2CCN(C(=O)CC[C@@]3(C)NC(=O)NC3=O)CC2)c(OC)cc1Cl [Cpd 102, (5R)-5-[3-[4-(4-chloro-5-ethyl-2-methoxy-phenyl)piperazin-1-yl]-3-oxo-propyl]-5-methyl-imidazolidine-2,4-dione], the IC50 (human ADAMTS6) was > 100 nM.
For COc1cc(N2CCN(C(=O)CC[C@H]3NC(=O)NC3=O)C[C@H]2C)cc(F)c1F [Cpd 127, (5R)-5-[3-[(3R)-4-(3,4-difluoro-5-methoxy-phenyl)-3-methyl-piperazin-1-yl]-3-oxo-propyl]imidazolidine-2,4-dione], the IC50 (human ADAMTS-5) was > 100 nM and the IC50 (human ADAMTS6) was > 100 nM.
